“Also recorded” adds a separate entry of the source.
What was measured:
E. coli K-12 [1] = experiment: Planktonic antibiotic killing assay; type: cell-based, Escherichia coli; settings: for fold more effective compared to ciprofloxacin: MMC 10 μg/mL vs ciprofloxacin 5 μg/mL
Procedure: (§1) In order to obtain exponential and mid-stationary phase cultures in LB, buffered LB or TSB, overnight cultures (16 h) were diluted 1:1000 in fresh medium and grown to the desired turbidity (i.e., a turbidity below 2 at 600 nm for exponential phase and a turbidity of 3 to 4 at 600 nm for mid-stationary phase). Late-stationary phase cultures in LB or buffered LB were obtained by growing overnight cultures (16 h). In order to obtain exponential and late-stationary phase cultures in M9-glucose, overnight cultures (16 h) were washed diluted 1:1000 in M9-glucose and grown for the desired period of time (i.e., a turbidity of 0.4 at 600 nm for exponential phase and 24 h of growth for late-stationary phase). Anaerobically grown cultures were maintained with ˜20% CO2, ˜79% N2, and ˜1% H2. In order to obtain rifampicin-induced persister cultures in buffered LB, overnight cultures (16 h) were diluted 1:1000 in fresh medium and grown to a turbidity of 0.8 at 600 nm. Cultures were exposed to rifampicin (100 μg/mL) for 30 min, centrifuged, and resuspended in fresh medium to remove the rifampicin.

E. coli O157:H7 (EHEC) = experiment: Planktonic antibiotic killing assay; type: cell-based, Escherichia coli; settings: MMC 10 μg/mL, 3 h; for cell viability after treatment: rich medium (buffered LB)
Procedure: as §1

[2] = tested on: S. aureus biofilm cultures; experiment: Biofilm antibiotic killing assay; type: cell-based, Staphylococcus aureus; settings: minimal medium (modified M9-glucose), 24 h treatment, MMC 10 μg/mL, ciprofloxacin 5 μg/mL
[3] = tested on: S. aureus (methicillin sensitive); experiment: Planktonic antibiotic killing assay; type: cell-based, Staphylococcus aureus; settings: rich medium (TSB), MMC 10 μg/mL, ciprofloxacin 5 μg/mL, 3 h
Procedure: as §1

[4] = tested on: E. coli K-12 ΔuvrA, ΔuvrB, and ΔuvrC mutants; experiment: Planktonic killing of uvr deletion mutants; type: cell-based, Escherichia coli; settings: mid-stationary phase, buffered LB
Procedure: as §1

P. aeruginosa PA14 = experiment: Planktonic antibiotic killing assay; type: cell-based, Pseudomonas aeruginosa; settings: mid-stationary phase, rich medium; MMC 10 μg/mL, 3 h
Procedure: as §1

[5] = tested on: EHEC, S. aureus, and P. aeruginosa PAO1; type: cell-based; settings: mono- and co-cultures in wound-like medium, 5 h treatment
Procedure: Overnight cultures (16 h) of EHEC, S. aureus, and P. aeruginosa PAO1 were grown in LB (TSB for S. aureus), washed with 0.85% NaCl solution, and diluted 1:1000 (as mono-cultures or co-cultures) in wound-like medium (WLM) (45% Bolton broth, 50% heparinized bovine plasma, and 5% laked horse blood). […] Samples containing S. aureus were coagulated, so sections of coagulated WLM were cut and weighed add appropriate amounts of antibiotics. Coagulated samples were triturated and vortexed to release cells prior to measuring cell viability.

[6] = tested on: E. coli K-12 BW25113 VBNC cultures; experiment: VBNC antibiotic killing assay; type: cell-based, Escherichia coli; settings: 16 h
Procedure: Overnight cultures (16 h) of E. coli K-12 BW25113 grown in LB were diluted 1:1000 in LB and grown to a turbidity of 3.0 at 600 nm. Cells were washed three times with 0.85% NaCl to remove nutrients and incubated in 0.85% NaCl for 32 days until the VBNC population was ˜1,000-fold higher than the culturable population. […] Samples (0.5 mL) were diluted 1:1 with LB to stimulate cellular respiration for 10 min prior to staining with 1 μL of 1 mM RedoxSensor™ Green dye and 1 μL of 20 mM propidium iodide. Samples were visualized in a hemocytometer (Hausser Scientific, Horsham, Pa., USA) using an Olympus BX61 confocal microscope (Olympus, Tokyo, Japan) at 200× magnification in order to determine viability of the VBNC population. Cell counting data was averaged from four images and experiment was performed with at least two independent cultures.

[7] = tested on: E. coli K-12 biofilm cultures; experiment: Biofilm antibiotic killing assay; type: cell-based, Escherichia coli
E. coli K-12 [8] = type: cell-based, Escherichia coli
Procedure: Persister cell killing and eradication assays (planktonic cells). For the time course experiment, late stationary phase cells of E. coli K-12 (wild-type and isogenic mutants) were prepared by growing cells overnight (16 h) in LB medium buffered with 100 mM KPO4 at pH 7.0 (buffered LB). A 1 mL culture was used for a drop (10 μL×3) assay to check cell viability at 0 h (i.e., before antibiotic treatment). […] At 1 h intervals, 1 mL culture was centrifuged at 10,000 rpm for 3 min, the supernatant was discarded, the cells were resuspended in 1 mL of normal saline (0.85% NaCl), and the cell suspension was serially diluted for a drop assay to check cell viability.
To test for eradication, the wild-type E. coli K-12 cells were treated with cisplatin for 12 h, a 1 mL sample was centrifuged, the cell pellet was resuspended in 150 μL of normal saline, and the cells were spread on LB agar to check cell viability. Another 1 mL culture was diluted 1:10 with fresh buffered LB and the cells were incubated to allow any remaining cells to replicate. After 12 h, 18 h, and 24 h, 1 mL samples were centrifuged, resuspended in 150 μL of normal saline and spread on LB agar plates to check cell viability. At least two independent cultures were used.

[9] = tested on: clinical strains of P. aeruginosa; experiment: Persister cell assay, multi-drug resistant clinical strains; type: cell-based, Pseudomonas aeruginosa; settings: cisplatin 100 μg/mL
Procedure: For the persister cell assay of the pathogens, stationary-phase cells were used. Cultures of EHEC, P. aeruginosa, and S. aureus were prepared by a 1:1000 dilution of overnight grown cultures (LB medium for EHEC and P. aeruginosa, TSB for S. aureus) into fresh buffered LB medium for EHEC, M9-glucose for P. aeruginosa, and TSB for S. aureus and re-growing the cells to a turbidity of 3 to 4 at 600 nm for EHEC and S. aureus and growing for 24 h for P. aeruginosa. […]

Compound: CO[C@@]12[C@H](COC(N)=O)C3=C(C(=O)C(C)=C(N)C3=O)N1C[C@@H]1N[C@@H]12 [MMC, mitomycin C]
- survival (E. coli K-12 [1]; anaerobic, late-stationary phase cells in rich medium (LB)): eradication beyond the limit of detection; also recorded: eradicated
- susceptibility of exponential-phase cultures (E. coli K-12 [1]; exponential phase, M9-glucose): similarly susceptible
- fold more effective compared to ciprofloxacin (E. coli K-12 [1]; exponentially-growing cells, buffered LB, 3 h): 2,300 fold
- time course of killing (death curve) (E. coli K-12 [1]; late-stationary phase culture, buffered LB): does not show the bi-phasic death curve
- persistence (surviving population) (E. coli K-12 [1]; late-stationary phase, M9-glucose, MMC 10, ciprofloxacin 5, gentamicin 10 μg/mL, 3 h): eradication beyond the limit of detection; also recorded: eradicated cells
- fold more effective compared to ciprofloxacin (E. coli K-12 [1]; mid-stationary-phase cells, buffered LB, 3 h): 150,000 fold
- effectiveness against rifampicin-induced persister cells (E. coli K-12 [1]; rifampicin pretreatment 100 μg/mL 30 min, buffered LB, MMC 10 μg/mL, ciprofloxacin 5 μg/mL, 3 h): highly effective
- cell viability after treatment (E. coli O157:H7 (EHEC); exponential phase): eradicating
- cells survived (E. coli O157:H7 (EHEC); late-stationary phase, M9-glucose, ciprofloxacin 5 μg/mL): eradicated
- cell viability after treatment (E. coli O157:H7 (EHEC); mid-stationary phase): eradicating
- survival [2]: eradicating cells beyond the limit of detection
- survival ([3]; exponential phase): eradicating
- survival ([3]; mid-stationary phase): eradicating
- time of treatment to eradication (beyond the limit of detection) [4]: less than 30 min
- survival (P. aeruginosa PA14): 0.0038±0.0005%
- effectiveness under wound-like conditions [5]: eradicates pathogens; also recorded: more effective than ciprofloxacin and ampicillin
- fold more effective at killing VBNC cells than ciprofloxacin ([6]; VBNC population (RedoxSensor Green), MMC 10 μg/mL vs ciprofloxacin 5 μg/mL): 7 fold
- survival of the culturable population ([6]; culturable population of VBNC cultures, MMC 10 μg/mL, ciprofloxacin 5 μg/mL): eradicates the culturable population; also recorded: eradicating the culturable population
- fold more susceptible to MMC than ciprofloxacin ([7]; anaerobic biofilm cultures in M9-glucose): 2,500 fold
- fold more cells killed than ciprofloxacin ([7]; biofilms in M9-glucose, 24 h of treatment): 100,000 fold
- biofilm cell viability after treatment ([7]; biofilms in M9-glucose, MMC 10 μg/mL, 24 h): nearly eliminating cells

Compound: N.N.[Cl][Pt][Cl] [cisplatin, cis-diamminodichloroplatinum(II)]
- eradication of persister cells (colonies from 1 mL of culture) (E. coli K-12 [8]; 5×MIC of cisplatin for 12 h): completely eradicated
- killing of katE or katG catalase mutants compared to the wild-type strain (E. coli K-12 [8]; 8 h treatment with 5×MIC of cisplatin): did not find any significant differences in killing
- time course dependent killing (E. coli K-12 [8]; late stationary phase (16 h of growth), buffered LB, cisplatin 500 μg/mL (5×MIC), ciprofloxacin 5 μg/mL (100×MIC), 8 h): nearly eradicated; also recorded: eradicates late stationary-phase E. coli K-12 cells
- regrowth when cisplatin is withdrawn (E. coli K-12 [8]; treated culture inoculated into fresh medium, 12 h, 18 h, and 24 h): no increase in turbidity or colonies
- survival ([9]; strain INP-37): 0.05±0.06%
- survival ([9]; strain INP-57M): 0.01±0.00%
- survival ([9]; strain INP-64M): 0.02±0.00%
- survival ([9]; strain RME-101): 0.02±0.03%

From patent US10238689B2, “Methods for combating bacterial infections by killing persister cells with mitomycin C and/or cisplatin” (THE PENN STATE RESEARCH FOUNDATION, priority 2015, dated 2019)
